Results: US10280183B2, “Therapeutic agent for treating tumors” (THE RESEARCH FOUNDATION FOR THE STATE UNIVERSITY OF NEW YORK, priority 2014, dated 2019)
Like-named read-outs stand apart in the source and are kept apart here.

Experiments:
[1] = system: MX-1 human breast carcinoma cell line (BR+); test: In vitro cytotoxicity, standard MTT assay, MX-1 cells; type: cell-based; conditions: Homo sapiens, Breast carcinoma cell
Description: (§1) Cell Culture. All cell lines were obtained from ATCC unless otherwise noted. Cells were cultured in RPMI-1640 cell culture medium (Gibco) or DMEM (Gibco), both supplemented with 5% (v/v) heat-inactivated fetal bovine serum (FBS), 5% (v/v) NuSerum, and 1% (v/v) penicillin and streptomycin (PenStrep) at 37° C. in a humidified atmosphere with 5% CO2. MX-1 and ID8 (obtained from University of Kansas Medical Center) cells were cultured as monolayers on 100 mm tissue culture dishes in supplemented RPMI-1640. L1210 and L1210FR (a gift from Dr. Gregory Russell-Jones, Access Pharmaceuticals Pty Ltd., Australia) were grown as a suspension in supplemented RPMI-1640, and WI-38 as a monolayer in supplemented DMEM. Cells were harvested, collected by centrifugation at 850 rpm for 5 min, and resuspended in fresh culture medium. Cell cultures were routinely divided by treatment with trypsin (TrypLE, Gibco) as needed every 2-4 days and collected by centrifugation at 850 rpm for 5 min, and resuspended in fresh cell culture medium, containing varying cell densities for subsequent biological experiments and analysis.
(§2) In Vitro Cytotoxicity Assays. […] Cells were harvested, collected, and resuspended in 100 μL cell culture medium at concentrations ranging from 0.5-1.5×10^4 cells per well in a 96-well plate. For adhesive cell types, cells were allowed to descend to the bottom of the wells overnight, and fresh medium was added to each well upon removal of the old medium.
(§3) For the MTT assay (Table 1 and the Assay 1 in Table 2) of paclitaxel, taxoid 3 and conjugates 1 and 15, cells were resuspended in 200 μL medium with 8,000 to 10,000 cells per well of a 96-well plate and incubated at 37° C. for 24 h before drug treatment. In DMSO stock solutions, each drug or conjugate was diluted to a series of concentrations in cell culture medium to prepare test solutions. After removing the old medium, these test solutions were added to the wells in the 96-well plate to give the final concentrations ranging from 0.5 to 5,000 nM (100 μL), and the cells were subsequently cultured at 37° C. for 48 h (Table 1) or 72 h (Table 2, Assay 1). For the leukemia cell lines, L1210 and L1210FR, cells were harvested, collected, and resuspended in the test solutions ranging from 0.5 to 5,000 nM (100 μL) at 0.5 to 0.8 ×10^4 cells per well in a 96-well plate and subsequently incubated at 37° C. for 48 h (Table 1) or 72 h (Table 2, Assay 1).
(§4) In the Assay 2 (Table 2), cells were incubated with 1 or 15 at 37° C. for 24 h, and the drug medium was removed. Then, treated cells were thoroughly washed with PBS, and GSH-OEt (6 equiv. to conjugate) in cell culture medium (200 μL) was added to the wells. These cells were incubated at 37° C. for an additional 48 h, i.e., the total incubation time was 72 h.
(§5) In the Assay 3 (Table 2), cells were incubated with 1 or 15 at 37° C. for 24 h, and GSH-OEt (6 equivalents) in cell culture medium (100 μL) was directly added to the wells. These cells were incubated at 37° C. for an additional 48 h, i.e. the total incubation time was also 72 h.
(§6) For all experiments, after removing the test medium, fresh solution of MTT in PBS (40 μL of 0.5 mg MTT/mL) was added to the wells, and the cells were incubated at 37° C. for 3 h. The MTT solution was then removed, and the resulting insoluble violet formazan crystals were dissolved in 0.1 N HCl in isopropanol with 10% Triton X-100 (40 μL) to give a violet solution. The spectrophotometric absorbance measurement of each well in the 96-well plate was run at 570 nm using a Labsystems Multiskan Ascent microplate reader. The IC50 values and their standard errors were calculated from the viability-concentration curve using Four Parameter Logistic Model of Sigmaplot. The concentration of DMSO per well was ≤1% in all cases. Each experiment was run in triplicate.

[2] = system: ID8 murine ovarian carcinoma cell line (BR+); test: In vitro cytotoxicity, standard MTT assay, ID8 cells; type: cell-based; conditions: Mus musculus, Ovarian carcinoma cell, read-out: Cytotoxicity IC50, ID8
Description: as §1, §2
as §3, with “After removing the old medium, these test solutions were added to the wells in the 96-well plate to give the final concentrations ranging from 0.5 to 5,000 nM (100 μL), and the cells were subsequently cultured at 37° C. for 48 h (Table 1) or 72 h (Table 2, Assay 1).” left out
as §6

[3] = system: L1210FR murine lymphocytic leukemia cell line (BR+); test: In vitro cytotoxicity, standard MTT assay, L1210FR cells; type: cell-based; conditions: Mus musculus
Description: as §1, §2, §3, §4, §5, §6

[4] = system: L1210 murine lymphocytic leukemia cell line (BR−); test: In vitro cytotoxicity, standard MTT assay, L1210 cells; type: cell-based; conditions: Mus musculus, read-out: Cytotoxicity IC50, L1210
Description: as §1, §2, §3, §6

[5] = system: WI38 human lung fibroblast cell line (BR−); test: In vitro cytotoxicity, standard MTT assay, WI38 cells; type: cell-based
Description: as §1, §2, §3, §4, §5, §6

[6] = as above; type: cell-based, human; conditions: human
Description: as §1, §2, §3, §4, §5, §6

[7] = system: BR+ cancer cell lines (L1210FR, MX-1, ID8); test: MTT cytotoxicity summarised over BR+ cancer cell lines; type: cell-based; conditions: 72 h incubation; read-out: IC50 range of free taxoid against MX-1 and L1210FR
Description: as §2, §3, §4, §5, §6
Thus, the Assay 1 results provide the potency of conjugates in the same manner as that for the first assay summarized in Table 1, but for longer incubation time (48 h vs. 72 h). […] Accordingly, this assay may mimic the corresponding in vivo assay conditions, wherein non-internalized conjugates would be removed from the tumor, redistributed and eventually excreted. […] Thus, in principle, the results (IC50 values) in this assay should be very close to those for the control using taxoid 3 (entry 2).

[8] = 72 h incubation, no GSH-OEt, read-out: Cytotoxicity IC50, WI38, Assay 1

| SMILES | IC50 ([1]; 72 h incubation, no GSH-OEt, read-out: Cytotoxicity IC50, MX-1, Assay 1) | IC50 ([1]; incubation at 37° C. for 48 h, read-out: Cytotoxicity IC50, MX-1) | IC50 ([2]; incubation at 37° C. for 48 h) | IC50 ([3]; 72 h incubation, no GSH-OEt, read-out: Cytotoxicity IC50, L1210FR, Assay 1) | IC50 ([3]; incubation at 37° C. for 48 h, read-out: Cytotoxicity IC50, L1210FR) | IC50 ([4]; L1210, incubation at 37° C. for 48 h) | IC50 [5, 8] | IC50 ([5]; incubation at 37° C. for 48 h, read-out: Cytotoxicity IC50, WI38) | IC50 ([1]; 48 h, read-out: Cytotoxicity IC50, MX-1) | IC50 ([1]; 72 h, read-out: Cytotoxicity IC50, MX-1, Assay 1) | IC50 ([2]; 48 h) | IC50 ([3]; 48 h, read-out: Cytotoxicity IC50, L1210FR) | IC50 ([3]; 72 h, read-out: Cytotoxicity IC50, L1210FR, Assay 1) | IC50 ([4]; L1210, 48 h) | IC50 at 72 h [6, 8] | IC50 at 48 h ([6]; incubation at 37° C. for 48 h) | IC50 [7] |
| --- | --- | --- | --- | --- | --- | --- | --- | --- | --- | --- | --- | --- | --- | --- | --- | --- | --- |
| CC(=O)O[C@H]1C(=O)[C@@]2(C)[C@H]([C@H](OC(=O)c3ccccc3)[C@]3(O)C[C@H](OC(=O)[C@H](O)[C@@H](NC(=O)c4ccccc4)c4ccccc4)C(C)=C1C3(C)C)[C@]1(OC(C)=O)CO[C@@H]1C[C@@H]2O [paclitaxel, reference compound] | 4.07 ± 0.8 nM | 7.23 ± 0.68 nM | 14.4 ± 1.81 nM | 35.6 ± 8.2 nM | 38.7 ± 17.7 nM | 77.1 ± 12.8 nM | 55.7 ± 9.54 nM | 61.4 ± 12.7 nM |  |  |  |  |  |  |  |  |  |
| CC(=O)O[C@@]12CO[C@@H]1C[C@H](O)[C@@]1(C)C(=O)[C@H](OC(=O)C3CC3)C3=C(C)[C@@H](OC(=O)[C@H](O)[C@H](C=C(C)C)NC(=O)OC(C)(C)C)C[C@@](O)([C@@H](OC(=O)c4ccccc4)[C@H]21)C3(C)C [Taxoid 3, SB-T-1214, reference compound] |  |  |  |  |  |  |  |  | 4.13 ± 2.59 nM | 2.66 ± 0.16 nM | 0.17 ± 0.14 nM | 4.18 ± 1.8 nM | 2.32 ± 1.41 nM | 7.05 ± 1.38 nM | 4.89 ± 2.24 nM | 5.23 ± 0.27 nM | 2.32 to 2.66 nM |
